Like-named read-outs stand apart in the source and are kept apart here.
Assays:
[1] = XTT proliferation assay for cellular toxicity; format: cell-based; conditions: human; cytotoxicity in Hela cells, XTT
Procedure: (§1) The anti-HIV-1 activity of target compounds was evaluated in a single cycle replication assay evaluated in our laboratory and reported previously. In this assay, the single-cycle replicable HIV NL4-3 virions (200 ng p24) were inoculated concurrently with compounds in different concentrations to the Hela cells. The inhibition rate (%) of p24 expression was measured by capture ELISA (Biomerieux, France) 72 hours after inoculation. Percentage inhibition of p24 expression in treated culture was calculated as inhibition rate of p24 (%). The XTT (sodium3-[1(phenylaminocarbonyl)-3,4-tetrazolium]-bis(4-methoxy-6-nitro)benzene sulfonic acid) proliferation assay was conducted to evaluate the cellular toxicity according to the kit instructions. The cytotoxic concentration that reduced the number of viable cells by 50% (CC50) was calculated after the determination of p24 load in the HIV-1 replication assay plates ([37]-[40]).
(§2) Fourteen 1,2-benzothiazine-3-carboxamide 1,1-dioxide derivatives containing different substituents at N-2 positions (12 and 13a-m) were synthesized and evaluated to inhibit the single-cycle HIV replication inhibition HeLa cell culture. Cytotoxicity of compounds was also tested in the same cell line to ensure the safety of compounds. Raltegravir was used as a positive control. Anti-HIV activity and cytotoxicity of compounds were expressed as EC50 and CC50, respectively. Selectivity Index (SI) was calculated using CC50/EC50 ratio.

[2] = tested on: single-cycle replicable HIV NL4-3 virions in Hela cells; experiment: single cycle HIV-1 replication assay (inhibition of p24 expression, capture ELISA); format: cell-based
Procedure: as §1, §2

[3] = tested on: single-cycle replicable HIV NL4-3 virions in Hela cells; design: method as in previously reported (b6); conditions: piroxicam value in Table 1, said in b54 to be previously reported; ref previously reported (b6); cited from earlier work
Hela cells = experiment: XTT proliferation assay for cellular toxicity; format: cell-based
Procedure: as §1, §2

[4] = Human immunodeficiency virus 1, NL43, HeLa, 72 h

Compound	melting point	CC50 at 72 h [1]	EC50 [2, 4]	EC50 [3]	CC50 (Hela cells)	EC50 ([2]; anti-HIV activity, single-cycle HIV NL4-3 in Hela cells, p24 at 72 hours, read-out: EC50)
NC(=O)C1=C(O)c2ccccc2S(=O)(=O)N1Cc1ccc([N+](=O)[O-])cc1 [Compound 13m, 4-Hydroxy-2-(4-nitrobenzyl)-2H-benzo[e][1,2]thiazine-3-carboxamide 1,1-dioxide]	288 °C (dec.)	650 µM	25 µM			
NC(=O)C1=C(O)c2ccccc2S(=O)(=O)N1Cc1ccc(Cl)cc1 [Compound 13h, 2-(4-Chlorobenzyl)-4-hydroxy-2H-benzo[e][1,2]thiazine-3-carboxamide 1,1-dioxide]		610 µM	55 µM			
CCN1C(C(N)=O)=C(O)c2ccccc2S1(=O)=O [Compound 13a, 2-Ethyl-4-hydroxy-2H-benzo[e][1,2]thiazine-3-carboxamide 1,1-dioxide]		550 µM	80 µM			
NC(=O)C1=C(O)c2ccccc2S(=O)(=O)N1Cc1ccccc1Cl [Compound 13g, 2-(2-Chlorobenzyl)-4-hydroxy-2H-benzo[e][1,2]thiazine-3-carboxamide 1,1-dioxide]		650 µM	40 µM			
CN1C(C(=O)Nc2ccccn2)=C(O)c2ccccc2S1(=O)=O [Piroxicam, piroxicam, reference compound]		900 µM		120 µM		
Cc1ccc(CN2C(C(N)=O)=C(O)c3ccccc3S2(=O)=O)cc1 [Compound 13d, 4-Hydroxy-2-(4-methylbenzyl)-2H-benzo[e][1,2]thiazine-3-carboxamide 1,1-dioxide]		680 µM	25 µM			
NC(=O)C1=C(O)c2ccccc2S(=O)(=O)N1CC1CCCCC1 [Compound 13b, 2-(Cyclohexylmethyl)-4-hydroxy-2H-benzo[e][1,2]thiazine-3-carboxamide 1,1-dioxide]	263 to 264 °C	400 µM	100 µM			
NC(=O)C1=C(O)c2ccccc2S(=O)(=O)N1Cc1ccc(F)cc1 [Compound 13l, 2-(4-Fluorobenzyl)-4-hydroxy-2H-benzo[e][1,2]thiazine-3-carboxamide 1,1-dioxide]		650 µM	20 µM			
NC(=O)C1=C(O)c2ccccc2S(=O)(=O)N1Cc1cccc(F)c1 [Compound 13k, 2-(3-Fluorobenzyl)-4-hydroxy-2H-benzo[e][1,2]thiazine-3-carboxamide 1,1-dioxide]	271 to 275 °C	550 µM	60 µM			
Cc1nnc(C(=O)NC(C)(C)c2nc(C(=O)NCc3ccc(F)cc3)c(O)c(=O)n2C)o1 [Raltegravir, raltegravir, reference compound]		> 500 µM	0.9 µM			
NC(=O)C1=C(O)c2ccccc2S(=O)(=O)N1 [Compound 12, 4-hydroxy-2H-benzo[e][1,2]thiazine-3-carboxamide 1,1-dioxide]	244 °C (dec.)	950 µM	105 µM			
NC(=O)C1=C(O)c2ccccc2S(=O)(=O)N1Cc1ccccc1 [Compound 13c, 2-Benzyl-4-hydroxy-2H-benzo[e][1,2]thiazine-3-carboxamide 1,1-dioxide]	270 to 275 °C	600 µM	45 µM			
Cc1ccccc1CN1C(C(N)=O)=C(O)c2ccccc2S1(=O)=O [Compound 13e, 4-Hydroxy-2-(2-methylbenzyl)-2H-benzo[e][1,2]thiazine-3-carboxamide 1,1-dioxide]	268 to 271 °C	650 µM	55 µM			
2-(3,4-Dichlorobenzyl)-4-hydroxy-2H-benzo[e][1,2]thiazine-3-carboxamide 1,1-dioxide [Compound 13i]					510 µM	110 µM
NC(=O)C1=C(O)c2ccccc2S(=O)(=O)N1Cc1ccccc1F [Compound 13j, 2-(2-Fluorobenzyl)-4-hydroxy-2H-benzo[e][1,2]thiazine-3-carboxamide 1,1-dioxide]	268 to 273 °C	680 µM	35 µM			
COc1cccc(CN2C(C(N)=O)=C(O)c3ccccc3S2(=O)=O)c1 [Compound 13f, 4-Hydroxy-2-(3-methoxybenzyl)-2H-benzo[e][1,2]thiazine-3-carboxamide 1,1-dioxide]	273 to 275 °C	640 µM	50 µM			
